Usually IC50 stands for the concentration needed to halve the response being measured. Broadly, the Kd is the free concentration of one partner at which half of the binding sites on the other are occupied at equilibrium, for simple one-to-one binding.

Where a name gives a salt, the structure may show the parent alone. Peptide text beside a SMILES is read from it.

For eleven compounds, IC50 and Kd results are on record in ChEMBL document CHEMBL3853314, “G-Protein-Coupled Receptor Kinase 2 (GRK2) Inhibitors: Current Trends and Future Perspectives” (J Med Chem, 2016).

Assay [1] deals with T1, Protein kinase C alpha type (Homo sapiens, UniProt P17252). Description: Inhibition of recombinant full-length human N-terminal GST tagged PKCalpha expressed in Baculovirus infected Sf9 insect cells using KRREILSRRPSYR as substrate incubated for 30 mins by ADP-Glo assay. Background: ADP-Glo first removes unused ATP, then detects ADP through luciferase.
Assay [2] can be described thus: Inhibition of PKA (unknown origin) using LRRASLG as substrate incubated for 30 mins by ADP-Glo assay. Also on record: species or system Homo sapiens.
The target in assay [3] is Beta-adrenergic receptor kinase 1 (Homo sapiens, UniProt P25098, S670A). The assay can be described thus: Inhibition of human GRK2 S670A mutant assessed as decrease in phosphorylation of light-activated bovine rod outer segments after 5 mins by SDS-PAGE analysis.
Beta-adrenergic receptor kinase 1 (Homo sapiens, UniProt P25098, S670A), sequence (P25098 whole entry S670A): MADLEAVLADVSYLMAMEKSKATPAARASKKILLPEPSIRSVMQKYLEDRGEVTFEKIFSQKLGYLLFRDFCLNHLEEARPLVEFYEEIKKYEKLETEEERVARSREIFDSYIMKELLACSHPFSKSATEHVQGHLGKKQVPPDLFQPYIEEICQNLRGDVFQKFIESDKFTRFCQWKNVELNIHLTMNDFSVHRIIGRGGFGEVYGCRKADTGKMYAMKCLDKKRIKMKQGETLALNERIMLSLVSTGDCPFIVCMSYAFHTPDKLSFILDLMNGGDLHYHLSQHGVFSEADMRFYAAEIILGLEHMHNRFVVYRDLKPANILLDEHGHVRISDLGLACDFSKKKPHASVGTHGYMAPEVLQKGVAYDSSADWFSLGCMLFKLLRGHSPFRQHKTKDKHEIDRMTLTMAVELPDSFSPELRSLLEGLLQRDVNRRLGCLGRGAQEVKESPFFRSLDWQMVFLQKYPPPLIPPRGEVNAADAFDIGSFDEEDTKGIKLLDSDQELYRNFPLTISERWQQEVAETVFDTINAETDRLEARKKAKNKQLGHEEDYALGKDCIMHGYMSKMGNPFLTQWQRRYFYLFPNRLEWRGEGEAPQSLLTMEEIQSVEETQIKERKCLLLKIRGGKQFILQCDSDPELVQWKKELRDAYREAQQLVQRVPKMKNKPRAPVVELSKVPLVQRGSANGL
Assay [4] has as its target T2, Beta-adrenergic receptor kinase 1 (Bos taurus, UniProt P21146).
T2 sequence (P21146 whole entry): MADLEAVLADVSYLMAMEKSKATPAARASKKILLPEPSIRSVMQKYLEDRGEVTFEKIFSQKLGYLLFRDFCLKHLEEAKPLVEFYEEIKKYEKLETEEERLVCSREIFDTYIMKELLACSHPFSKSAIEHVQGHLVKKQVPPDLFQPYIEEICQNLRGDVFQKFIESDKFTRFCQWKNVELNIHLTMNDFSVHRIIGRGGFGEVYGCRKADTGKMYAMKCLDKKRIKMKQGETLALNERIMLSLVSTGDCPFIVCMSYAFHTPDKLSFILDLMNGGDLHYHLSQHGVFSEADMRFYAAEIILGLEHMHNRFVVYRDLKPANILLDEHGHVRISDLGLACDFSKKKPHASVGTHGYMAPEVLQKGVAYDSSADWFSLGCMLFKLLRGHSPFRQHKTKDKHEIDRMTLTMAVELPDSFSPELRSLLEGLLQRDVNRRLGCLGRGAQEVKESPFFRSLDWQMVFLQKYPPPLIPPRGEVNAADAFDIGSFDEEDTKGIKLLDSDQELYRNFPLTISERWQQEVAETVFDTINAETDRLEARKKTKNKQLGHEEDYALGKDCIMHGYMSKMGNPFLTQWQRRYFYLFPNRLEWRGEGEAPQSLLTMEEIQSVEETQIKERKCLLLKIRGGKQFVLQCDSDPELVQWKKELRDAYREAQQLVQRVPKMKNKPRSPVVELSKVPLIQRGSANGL
Description: Inhibition of bovine cerebral cortex GRK2 assessed as decrease in phosphorylation of beta-adrenoceptor in presence of [gamma-32P]-ATP by SDS-PAGE analysis.

Assay [5] deals with T3, Rhodopsin kinase GRK1 (Bos taurus, UniProt P28327).
T3 sequence (P28327 whole entry): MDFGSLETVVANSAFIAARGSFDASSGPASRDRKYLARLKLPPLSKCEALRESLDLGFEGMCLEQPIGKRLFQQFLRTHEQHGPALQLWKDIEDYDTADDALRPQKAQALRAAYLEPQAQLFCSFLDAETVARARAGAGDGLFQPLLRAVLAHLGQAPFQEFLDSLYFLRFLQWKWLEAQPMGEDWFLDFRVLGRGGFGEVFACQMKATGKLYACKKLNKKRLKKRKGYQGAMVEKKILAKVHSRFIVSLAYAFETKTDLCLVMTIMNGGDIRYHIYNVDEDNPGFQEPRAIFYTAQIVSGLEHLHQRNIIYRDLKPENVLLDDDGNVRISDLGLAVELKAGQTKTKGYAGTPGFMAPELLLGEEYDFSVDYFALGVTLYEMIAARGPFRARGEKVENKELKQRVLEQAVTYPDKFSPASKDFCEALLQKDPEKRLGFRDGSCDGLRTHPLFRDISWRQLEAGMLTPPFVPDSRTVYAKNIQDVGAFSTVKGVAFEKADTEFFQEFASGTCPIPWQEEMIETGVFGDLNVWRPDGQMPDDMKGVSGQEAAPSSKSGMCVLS
The assay can be described thus: Inhibition of bovine GRK1 (1 to 535 residues) assessed as decrease in phosphorylation of tubulin after 5 mins by SDS-PAGE analysis.

Assay [6] addresses Protein kinase C beta type (Homo sapiens, UniProt P05771). Description: Binding affinity to PKCbeta2 (unknown origin) using Lys-Arg-Thr-Leu-Arg-Arg as substrate after 8 mins in presence of [gamma-32P]ATP by liquid scintillation spectrometry.
Assay [7] has as its target T4, cGMP-dependent protein kinase 1 (Homo sapiens, UniProt Q13976).
T4 sequence (Q13976 whole entry): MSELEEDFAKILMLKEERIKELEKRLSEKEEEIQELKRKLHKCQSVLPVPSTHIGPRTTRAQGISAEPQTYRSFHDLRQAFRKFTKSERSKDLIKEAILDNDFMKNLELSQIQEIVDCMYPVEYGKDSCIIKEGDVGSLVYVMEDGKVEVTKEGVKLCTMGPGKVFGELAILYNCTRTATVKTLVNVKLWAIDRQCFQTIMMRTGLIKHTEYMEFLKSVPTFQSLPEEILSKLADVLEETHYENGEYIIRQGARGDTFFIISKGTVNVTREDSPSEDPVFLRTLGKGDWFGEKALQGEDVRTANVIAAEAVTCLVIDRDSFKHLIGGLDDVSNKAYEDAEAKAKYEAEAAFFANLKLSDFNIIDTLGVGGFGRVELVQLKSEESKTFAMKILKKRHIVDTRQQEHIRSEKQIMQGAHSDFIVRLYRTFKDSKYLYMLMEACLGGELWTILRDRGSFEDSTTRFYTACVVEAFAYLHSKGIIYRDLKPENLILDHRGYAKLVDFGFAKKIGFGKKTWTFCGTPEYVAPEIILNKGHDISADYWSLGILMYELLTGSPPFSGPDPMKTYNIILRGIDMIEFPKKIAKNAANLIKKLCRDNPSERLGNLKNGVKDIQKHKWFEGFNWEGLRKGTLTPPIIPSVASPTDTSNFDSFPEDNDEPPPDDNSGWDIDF
Description: Binding affinity to human recombinant N-terminal GST-tagged PKGalpha expressed in Baculovirus infected insect Sf9 cells using RKRSRAE as substrate in presence of [gamma-32P]ATP.

The target in assay [8] is T1, Protein kinase C alpha type. Description: Binding affinity to PKCalpha (unknown origin) using Lys-Arg-Thr-Leu-Arg-Arg as substrate after 8 mins in presence of [gamma-32P]ATP by liquid scintillation spectrometry.
Assay [9] deals with T3, Rhodopsin kinase GRK1. Description: Inhibition of bovine C-terminal truncated GRK1 (535 residues) assessed as decrease in phosphorylation of urea-washed bovine rod outer segments preincubated for 30 mins followed by ATP addition and light exposure measured after 5 to 10 mins by SDS-PAGE analysis.
Assay [10] can be described thus: Inhibition of human PKA catalytic subunit.
For assay [11], the target named is T2, Beta-adrenergic receptor kinase 1. Description: Inhibition of bovine cerebral cortex GRK2 assessed as decrease in rhodopsin phosphorylation by SDS-PAGE analysis.
Assay [12] addresses G protein-coupled receptor kinase 5 (Bos taurus, UniProt P43249). The assay can be described thus: Inhibition of bovine GRK5 assessed as decrease in phosphorylation of tubulin after 5 mins by SDS-PAGE analysis.
Assay [13] has as its target G protein-coupled receptor kinase 5 (Homo sapiens, UniProt P34947). The assay can be described thus: Inhibition of recombinant human GRK5 expressed in Sf9 insect cells assessed as decrease in phosphorylation of urea-washed bovine rod outer segments in presence of Gbetagamma subunits and [gamma-32P]-ATP after 5 to 60 mins by SDS-PAGE analysis.
Assay [14] deals with T5, G protein-coupled receptor kinase 3 (Bos taurus, UniProt P26818).
T5 sequence (P26818 whole entry): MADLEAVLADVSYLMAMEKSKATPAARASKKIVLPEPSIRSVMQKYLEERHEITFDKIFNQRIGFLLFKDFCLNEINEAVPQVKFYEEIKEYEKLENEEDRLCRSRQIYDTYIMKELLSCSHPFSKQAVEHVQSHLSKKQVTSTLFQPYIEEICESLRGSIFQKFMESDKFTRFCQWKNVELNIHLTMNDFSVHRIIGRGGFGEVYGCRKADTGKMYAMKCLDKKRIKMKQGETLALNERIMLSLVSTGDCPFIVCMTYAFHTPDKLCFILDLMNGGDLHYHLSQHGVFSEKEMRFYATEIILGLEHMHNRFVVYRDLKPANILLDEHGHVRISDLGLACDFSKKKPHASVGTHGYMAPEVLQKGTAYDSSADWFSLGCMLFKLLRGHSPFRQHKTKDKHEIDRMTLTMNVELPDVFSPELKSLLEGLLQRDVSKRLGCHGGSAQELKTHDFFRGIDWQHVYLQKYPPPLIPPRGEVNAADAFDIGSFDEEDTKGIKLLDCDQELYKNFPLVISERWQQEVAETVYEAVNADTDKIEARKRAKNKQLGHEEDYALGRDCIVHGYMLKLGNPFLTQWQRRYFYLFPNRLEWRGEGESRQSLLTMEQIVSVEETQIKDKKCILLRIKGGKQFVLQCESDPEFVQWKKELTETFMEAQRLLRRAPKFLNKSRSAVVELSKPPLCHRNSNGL
The assay can be described thus: Inhibition of recombinant bovine GRK3 expressed in Sf9 insect cells assessed as decrease in phosphorylation of urea-washed bovine rod outer segments in presence of Gbetagamma subunits and [gamma-32P]-ATP after 5 to 60 mins by SDS-PAGE analysis.

In assay [15] the target is Beta-adrenergic receptor kinase 1 (Bos taurus, UniProt P21146, S670A). The assay can be described thus: Inhibition of bovine GRK2 expressed in Sf9 insect cells assessed as decrease in phosphorylation of urea-washed bovine rod outer segments in presence of Gbetagamma subunits and [gamma-32P]-ATP after 5 to 60 mins by SDS-PAGE analysis.
Beta-adrenergic receptor kinase 1 (Bos taurus, UniProt P21146, S670A), sequence (P21146 whole entry S670A): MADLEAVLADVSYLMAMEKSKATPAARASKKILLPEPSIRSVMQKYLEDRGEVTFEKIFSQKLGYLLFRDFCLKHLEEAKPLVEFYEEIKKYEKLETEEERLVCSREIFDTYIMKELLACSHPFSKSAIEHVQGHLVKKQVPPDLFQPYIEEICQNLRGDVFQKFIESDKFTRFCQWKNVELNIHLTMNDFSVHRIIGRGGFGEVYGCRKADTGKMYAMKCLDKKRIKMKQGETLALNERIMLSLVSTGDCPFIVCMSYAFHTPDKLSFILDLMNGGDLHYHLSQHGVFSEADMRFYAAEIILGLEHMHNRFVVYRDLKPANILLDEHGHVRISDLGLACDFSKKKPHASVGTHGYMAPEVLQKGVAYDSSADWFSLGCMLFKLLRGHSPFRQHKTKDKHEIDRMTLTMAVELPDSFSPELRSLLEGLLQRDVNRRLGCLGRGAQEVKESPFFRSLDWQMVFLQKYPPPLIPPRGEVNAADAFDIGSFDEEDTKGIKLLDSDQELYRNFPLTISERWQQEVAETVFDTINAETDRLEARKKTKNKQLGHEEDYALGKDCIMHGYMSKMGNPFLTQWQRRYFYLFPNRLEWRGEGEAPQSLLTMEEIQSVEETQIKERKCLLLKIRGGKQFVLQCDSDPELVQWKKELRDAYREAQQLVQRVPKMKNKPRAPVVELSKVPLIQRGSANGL

G protein-coupled receptor kinase 5 (Homo sapiens, UniProt P34947), sequence (P34947 whole entry): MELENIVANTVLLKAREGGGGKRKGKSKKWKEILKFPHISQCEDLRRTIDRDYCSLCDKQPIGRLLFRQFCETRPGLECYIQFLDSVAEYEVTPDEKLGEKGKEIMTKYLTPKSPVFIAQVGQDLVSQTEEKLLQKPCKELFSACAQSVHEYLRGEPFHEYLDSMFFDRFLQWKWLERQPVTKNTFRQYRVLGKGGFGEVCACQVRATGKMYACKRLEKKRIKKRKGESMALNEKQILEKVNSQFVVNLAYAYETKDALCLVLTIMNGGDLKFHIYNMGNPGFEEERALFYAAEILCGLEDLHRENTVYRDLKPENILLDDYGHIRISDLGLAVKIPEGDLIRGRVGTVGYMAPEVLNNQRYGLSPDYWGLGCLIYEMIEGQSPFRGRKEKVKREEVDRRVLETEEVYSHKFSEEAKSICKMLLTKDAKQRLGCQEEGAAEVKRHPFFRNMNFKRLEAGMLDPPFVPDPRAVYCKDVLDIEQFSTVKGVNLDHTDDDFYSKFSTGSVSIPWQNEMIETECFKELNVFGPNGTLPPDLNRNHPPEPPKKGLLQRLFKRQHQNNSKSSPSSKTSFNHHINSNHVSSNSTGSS
Protein kinase C beta type, sequence (P05771 whole entry): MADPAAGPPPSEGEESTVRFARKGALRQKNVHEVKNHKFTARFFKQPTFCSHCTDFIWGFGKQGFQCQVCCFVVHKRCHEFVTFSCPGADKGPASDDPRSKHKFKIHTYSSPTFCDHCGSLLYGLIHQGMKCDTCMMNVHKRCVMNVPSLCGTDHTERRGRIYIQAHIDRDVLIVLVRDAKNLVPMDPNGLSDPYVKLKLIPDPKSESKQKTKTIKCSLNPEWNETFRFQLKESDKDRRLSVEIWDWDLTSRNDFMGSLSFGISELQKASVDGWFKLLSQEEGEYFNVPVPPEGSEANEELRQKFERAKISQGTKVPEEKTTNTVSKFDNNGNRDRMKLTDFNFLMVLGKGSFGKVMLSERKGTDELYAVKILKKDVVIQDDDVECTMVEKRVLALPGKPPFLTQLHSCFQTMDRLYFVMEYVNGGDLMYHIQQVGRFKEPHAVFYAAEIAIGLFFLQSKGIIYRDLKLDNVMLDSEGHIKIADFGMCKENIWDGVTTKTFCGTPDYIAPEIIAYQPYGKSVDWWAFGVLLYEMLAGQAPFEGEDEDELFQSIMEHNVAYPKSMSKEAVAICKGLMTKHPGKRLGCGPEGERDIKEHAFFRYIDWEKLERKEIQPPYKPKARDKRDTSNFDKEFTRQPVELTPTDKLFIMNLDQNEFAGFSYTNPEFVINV
G protein-coupled receptor kinase 5 (Bos taurus, UniProt P43249), sequence (P43249 whole entry): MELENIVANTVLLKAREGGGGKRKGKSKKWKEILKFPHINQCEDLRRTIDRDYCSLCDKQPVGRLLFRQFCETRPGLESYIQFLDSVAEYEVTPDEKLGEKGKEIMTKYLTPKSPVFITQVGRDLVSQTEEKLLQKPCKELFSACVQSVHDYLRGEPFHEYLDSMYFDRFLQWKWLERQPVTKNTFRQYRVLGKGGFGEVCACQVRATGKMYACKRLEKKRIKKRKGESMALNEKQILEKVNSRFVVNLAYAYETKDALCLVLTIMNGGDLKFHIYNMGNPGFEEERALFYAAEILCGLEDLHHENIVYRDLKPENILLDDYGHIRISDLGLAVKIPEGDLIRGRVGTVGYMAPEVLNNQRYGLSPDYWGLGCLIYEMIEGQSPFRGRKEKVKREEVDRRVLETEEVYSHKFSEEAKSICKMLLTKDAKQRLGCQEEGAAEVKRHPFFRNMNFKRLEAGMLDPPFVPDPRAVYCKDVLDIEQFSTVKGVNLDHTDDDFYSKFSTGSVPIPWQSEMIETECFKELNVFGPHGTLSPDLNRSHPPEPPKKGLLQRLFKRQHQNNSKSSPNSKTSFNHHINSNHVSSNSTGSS

On to `Fc1ccc([C@@H]2CCNC[C@H]2COc2ccc3c(c2)OCO3)cc1` [PAROXETINE HYDROCHLORIDE], for which the IC50 was 220 µM in assay [1] and > 45 µM in assay [2].
On to `O=C1NCc2ccc(OC[C@@H]3CNCC[C@H]3c3ccc(F)cc3)cc21`, for which the IC50 in assay [3] came to 6.3 µM.
With `CC(C)C[C@H](NC(=O)[C@H](CCCNC(=N)N)NC(=O)[C@H](CCC(=O)O)NC(=O)[C@H](Cc1ccccc1)NC(=O)[C@H](CCCCN)NC(=O)[C@H](C)N)C(=O)N[C@@H](CCC(N)=O)C(=O)N[C@H](C(=O)N[C@H](C(=O)N[C@H](C(=O)N[C@@H](CC(N)=O)C(=O)O)[C@@H](C)O)C(C)C)[C@@H](C)O` (H-AKFERLQTVTN-OH), the IC50 in assay [4] turned out to be 1600 µM.
Turning to `CC1=C(C(=O)Nc2cc(Cl)c3[nH]ncc3c2)C(c2ccc(C(F)(F)F)cc2)CC(=O)N1` (configuration not stated) [GSK-466317A], the IC50 is 1000 µM on Rhodopsin kinase GRK1 [5] and 12.6 µM in assay [2].
On to `O=C(N[C@@H]1CNCCC[C@H]1OC(=O)c1cc(O)c(C(=O)c2c(O)cccc2C(=O)O)c(O)c1)c1ccc(O)cc1` [BALANOL], for which the dissociation constant Kd in assay [6] was determined as 0.0018 µM; in assay [7], 0.0016 µM; in assay [8], 0.0064 µM. Further, at Rhodopsin kinase GRK1 [9], the IC50 came to 4.1 µM.
Turning to `Cn1c(CNc2cccc(C(=O)NCc3ccccc3C(F)(F)F)c2)nnc1-c1ccncc1`, in assay [10], the IC50 is > 2 µM.
Take `O=P(O)(O)O[C@@H]1[C@H](O)[C@H](O)[C@@H](O)[C@H](O)[C@H]1O`: the IC50 in assay [11] was 3600 µM.
On to `O=S(=O)(O)O[C@H]1[C@H](OS(=O)(=O)O)[C@@H](OS(=O)(=O)O)[C@H](OS(=O)(=O)O)[C@@H](OS(=O)(=O)O)[C@H]1OS(=O)(=O)O`, for which the IC50 in [11] stood at 13.5 µM.
As to `CC1=C(C(=O)Nc2ccc3[nH]ncc3c2)C(c2ccc(F)cc2)N=C(c2ccc(C(F)(F)F)cc2)N1` (configuration not stated), the results for the IC50 (at Rhodopsin kinase GRK1 [5]; in [2]; in assay [12]) were > 1000 µM, 200 µM and 631 µM, respectively.
Consider `CC[C@H](C)[C@H](NC(=O)[C@H](C)NC(=O)[C@@H](NC(=O)[C@@H](N)CCCCN)[C@@H](C)O)C(=O)N[C@@H](C)C(=O)N[C@@H](CCCCN)C(=O)N[C@@H](Cc1ccccc1)C(=O)N[C@@H](CCC(=O)O)C(=O)N[C@@H](CCCNC(=N)N)C(=O)N[C@@H](CC(C)C)C(=O)N[C@@H](CCC(N)=O)C(=O)N[C@H](C(=O)N[C@H](C(=O)N[C@H](C(=O)N[C@@H](CC(N)=O)C(=O)O)[C@@H](C)O)C(C)C)[C@@H](C)O` (H-KTAIAKFERLQTVTN-OH), for which the half-inhibitory concentration (IC50) worked out at 2.1 µM in [13], 11.6 µM in assay [14] and 5.6 µM in assay [15].
Turning to `CC[C@H](C)[C@H](NC(=O)[C@H](Cc1ccccc1)NC(=O)[C@H](Cc1ccc(O)cc1)NC(=O)[C@H](CC(N)=O)NC(=O)[C@@H](NC(=O)[C@@H](NC(=O)[C@@H](NC(=O)[C@H](CCC(N)=O)NC(=O)[C@H](CC(C)C)NC(=O)[C@H](CCCNC(=N)N)NC(=O)[C@H](CCC(=O)O)NC(=O)[C@H](Cc1ccccc1)NC(=O)[C@H](CCCCN)NC(=O)[C@H](C)N)[C@@H](C)O)C(C)C)[C@@H](C)O)C(=O)N[C@H](C(=O)N[C@@H](CO)C(=O)N[C@@H](CCCCN)C(=O)O)[C@@H](C)O` (H-AKFERLQTVTNYFITSK-OH), the IC50 in assay [13] was 9.4 µM; in [14], 55.5 µM; in assay [15] it was 32.2 µM.
